The target of this assay is T1, glucocorticoid receptor (Homo sapiens, UniProt P04150).
T1 construct: host or cells: A549 human lung epithelial cells (sonicated cell extract)
T1 sequence (P04150 1-777): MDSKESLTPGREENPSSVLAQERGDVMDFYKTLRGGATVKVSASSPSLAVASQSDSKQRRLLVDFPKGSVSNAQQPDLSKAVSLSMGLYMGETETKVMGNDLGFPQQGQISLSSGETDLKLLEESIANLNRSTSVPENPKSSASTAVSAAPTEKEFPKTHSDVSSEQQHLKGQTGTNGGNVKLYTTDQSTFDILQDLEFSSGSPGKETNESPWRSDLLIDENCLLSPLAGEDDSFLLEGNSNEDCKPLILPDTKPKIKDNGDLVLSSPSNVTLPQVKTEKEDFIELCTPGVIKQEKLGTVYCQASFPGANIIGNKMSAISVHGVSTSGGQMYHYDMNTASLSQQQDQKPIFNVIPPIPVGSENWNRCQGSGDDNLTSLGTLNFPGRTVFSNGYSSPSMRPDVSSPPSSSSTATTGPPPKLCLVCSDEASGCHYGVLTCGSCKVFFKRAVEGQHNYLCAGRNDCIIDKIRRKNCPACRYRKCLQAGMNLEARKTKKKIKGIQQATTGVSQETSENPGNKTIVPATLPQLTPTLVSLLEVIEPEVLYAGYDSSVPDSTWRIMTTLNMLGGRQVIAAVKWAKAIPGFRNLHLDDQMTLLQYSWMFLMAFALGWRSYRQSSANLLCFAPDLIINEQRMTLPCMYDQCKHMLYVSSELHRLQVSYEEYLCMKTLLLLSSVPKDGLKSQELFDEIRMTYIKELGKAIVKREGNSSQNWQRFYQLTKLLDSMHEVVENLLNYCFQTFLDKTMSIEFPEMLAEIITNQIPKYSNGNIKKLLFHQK
Description: Glucocorticoid Receptor Binding Assay ([3H]-dexamethasone displacement, A549 cell extract). To be noted: A549 human lung epithelial cell extract, 1.86 nM [3H]-dexamethasone; read-out: GR Ki. On the procedure: Glucocorticoid Receptor Binding Assay:
A549 human lung epithelial cells (ATCC) are grown at a scale where gram quantity cell pellets are obtained. Harvested cell pellets are washed twice in cold phosphate buffered saline, centrifuged, and resuspended in cold assay binding buffer. The assay binding buffer consists of 10% glycerol, 50 mM Tris-HCl (pH7.2), 75 mM sodium chloride, 1.5 mM magnesium chloride, 1.5 mM EDTA, and 10 mM sodium molybdate. Cell suspensions were lysed via sonication, centrifuged, and the “extract” supernatant is snap frozen and stored at −80C. until needed.
GR binding assays are performed in a final volume of 140 ul containing 50-200 ug of A549 cell extract and 1.86 nM [^3H]-dexamethasone (Amersham) plus varying concentrations of test compound or vehicle. Briefly, assays are prepared at RT in 96-well Fisher 3356 plates, each well containing 100 ul of A549 cell extract, 20 ul of [^3H]-dexamethasone, and 20 ul of test compound/vehicle. Incubations are carried out at 4 degrees celsius for 16 hours. After incubation, 70 ul of 3× dextran-coated charcoal solution is added to each reaction, mixed, and incubated for 8 minutes at RT. 3×-dextran-coated charcoal solution consists of 250 ml assay binding buffer, 3.75 g Norit A charcoal (Sigma), and 1.25 g dextran T-70 (Amersham). Charcoal/unbound radioligand complexes are removed by centrifugation of the plate and 140 ul of supernatant from each well is transferred to another 96 well Optiplate (Packard Instruments). 200 ul of Microscint-20 scinillant (Packard Instruments) is added to each well and amount of receptor bound radioligand is determined using Packard Instruments TopCount instrument.
IC50 values, defined as the concentration of test compound required to decrease [^3H]-dexamethasone binding by 50%, are then determined. Ki values for each respective test compound can then be calculated by application of the Cheng-Prusoff equation as described in Cheng et al., Relationship Between The Inhibition Constant (Ki) and The Concentration of Inhibitor Which Causes 50% Inhibition (IC50) of an Enzymatic Reaction, Biochem. Pharmacol., 22: 3099-31088; (1973).

Molecules are shown by their SMILES. Where only a bound is given, the exact number is not on record here.

Usually Ki stands for a measure of affinity in units of concentration, obtained from inhibition or displacement. For the compound `CCCCCN1C(=O)C(c2cc(C)c(O)c(C)c2)(c2cc(C)c(O)c(C)c2)c2ccccc21` [Example 77, 3,3-Bis-(4-hydroxy-3,5-dimethyl-phenyl)-1-pentyl-1,3-dihydro-indol-2-one], the Ki is not above 500 nM. In the case of `Cc1cc(C2(c3cc(C)c(O)c(C)c3)C(=O)N(CC#N)c3ccccc32)cc(C)c1O` [Example 78, [3,3-Bis-(4-hydroxy-3,5-dimethyl-phenyl)-2-oxo-2,3-dihydro-indol-1-yl]-acetonitrile], the Ki is not above 500 nM.

Take `Cc1cc(C2(c3cc(C)c(O)c(C)c3)C(=O)N(Cc3ccccc3OC(F)F)c3ccccc32)cc(C)c1O` [Example 79, 1-(2-Difluoromethoxy-benzyl)-3,3-bis-(4-hydroxy-3,5-dimethyl-phenyl)-1,3-dihydro-indol-2-one]: the Ki was not above 500 nM. The same measure for `CCOCCN1C(=O)C(c2cc(C)c(O)c(C)c2)(c2cc(C)c(O)c(C)c2)c2ccccc21` [Example 80, 1-(2-Ethoxy-ethyl)-3,3-bis-(4-hydroxy-3,5-dimethyl-phenyl)-1,3-dihydro-indol-2-one]: not above 500 nM; for `Cc1cc(C2(c3cc(C)c(O)c(C)c3)C(=O)N(Cc3ccc(Cl)cc3F)c3ccccc32)cc(C)c1O` [Example 83, 1-(4-Chloro-2-fluoro-benzyl)-3,3-bis-(4-hydroxy-3,5-dimethyl-phenyl)-1,3-dihydro-indol-2-one]: not above 500 nM.

For the compound `Cc1cc(C2(c3cc(C)c(O)c(C)c3)C(=O)N(Cc3ccc(-c4csnn4)cc3)c3ccccc32)cc(C)c1O` [Example 84, 3,3-Bis-(4-hydroxy-3,5-dimethyl-phenyl)-1-(4-[1,2,3]thiadiazol-4-yl-benzyl)-1,3-dihydro-indol-2-one], the Ki was not above 500 nM. The same measure for `Cc1cc(C2(c3cc(C)c(O)c(C)c3)C(=O)N(Cc3cccc([N+](=O)[O-])c3)c3ccccc32)cc(C)c1O` [Example 85, 3,3-Bis-(4-hydroxy-3,5-dimethyl-phenyl)-1-(3-nitro-benzyl)-1,3-dihydro-indol-2-one]: not above 500 nM. For `Cc1cc(C2(c3cc(C)c(O)c(C)c3)C(=O)N(Cc3noc(C4CCC4)n3)c3ccccc32)cc(C)c1O` [Example 86, 1-(5-Cyclobutyl-[1,2,4]oxadiazol-3-ylmethyl)-3,3-bis-(4-hydroxy-3,5-dimethyl-phenyl)-1,3-dihydro-indol-2-one], the Ki is not above 500 nM.

In the case of `Cc1cc(C2(c3cc(C)c(O)c(C)c3)C(=O)N(Cc3noc(-c4ccco4)n3)c3ccccc32)cc(C)c1O` [Example 87, 1-(5-Furan-2-yl-[1,2,4]oxadiazol-3-ylmethyl)-3,3-bis-(4-hydroxy-3,5-dimethyl-phenyl)-1,3-dihydro-indol-2-one], the Ki is not above 500 nM.

With `CCc1nc(CN2C(=O)C(c3cc(C)c(O)c(C)c3)(c3cc(C)c(O)c(C)c3)c3ccccc32)cs1` [Example 90, 1-(2-Ethyl-thiazol-4-ylmethyl)-3,3-bis-(4-hydroxy-3,5-dimethyl-phenyl)-1,3-dihydro-indol-2-one], the Ki is not above 1000 nM. The same measure for `Cc1cc(C2(c3cc(C)c(O)c(C)c3)C(=O)N(Cc3csc(-c4ccccc4)n3)c3ccccc32)cc(C)c1O` [Example 91, 3,3-Bis-(4-hydroxy-3,5-dimethyl-phenyl)-1-(2-phenyl-thiazol-4-ylmethyl)-1,3-dihydro-indol-2-one]: not above 10000 nM; for `Cc1ccc2c(c1)C(c1cc(C)c(O)c(C)c1)(c1cc(C)c(O)c(C)c1)C(=O)N2Cc1csc(-c2ccccc2)n1` [Example 92, 3,3-Bis-(4-hydroxy-3,5-dimethyl-phenyl)-5-methyl-1-(2-phenyl-thiazol-4-ylmethyl)-1,3-dihydro-indol-2-one]: not above 500 nM.

With `COc1ccc(-c2nc(CN3C(=O)C(c4cc(C)c(O)c(C)c4)(c4cc(C)c(O)c(C)c4)c4ccccc43)cs2)cc1` [Example 94, 3,3-Bis-(4-hydroxy-3,5-dimethyl-phenyl)-1-[2-(4-methoxy-phenyl)-thiazol-4-ylmethyl]-1,3-dihydro-indol-2-one], the Ki is not above 10000 nM. The same measure for `COc1ccc(-c2nc(CN3C(=O)C(c4cc(C)c(O)c(C)c4)(c4cc(C)c(O)c(C)c4)c4cc(C)ccc43)cs2)cc1` [Example 95, 3,3-Bis-(4-hydroxy-3,5-dimethyl-phenyl)-1-[2-(4-methoxy-phenyl)-thiazol-4-ylmethyl]-5-methyl-1,3-dihydro-indol-2-one]: not above 1000 nM; for `Cc1cc(C2(c3cc(C)c(O)c(C)c3)C(=O)N(Cc3ccc4ccccc4n3)c3ccccc32)cc(C)c1O` [Example 97, 3,3-Bis-(4-hydroxy-3,5-dimethyl-phenyl)-1-quinolin-2-ylmethyl-1,3-dihydro-indol-2-one]: not above 500 nM. The same measure for `COc1ccc(-c2nc(CN3C(=O)C(c4cc(C)c(O)c(C)c4)(c4cc(C)c(O)c(C)c4)c4ccccc43)no2)cc1` [Example 99, 3,3-Bis-(4-hydroxy-3,5-dimethyl-phenyl)-1-[5-(4-methoxy-phenyl)-[1,2,4]oxadiazol-3-ylmethyl]-1,3-dihydro-indol-2-one]: not above 1000 nM; for `C#CCN1C(=O)C(c2cc(C)c(O)c(C)c2)(c2cc(C)c(O)c(C)c2)c2ccccc21` [Example 101, 3,3-Bis-(4-hydroxy-3,5-dimethyl-phenyl)-1-prop-2-ynyl-1,3-dihydro-indol-2-one]: not above 500 nM.

Regarding `CC(C)=CCN1C(=O)C(c2cc(C)c(O)c(C)c2)(c2cc(C)c(O)c(C)c2)c2ccccc21` [Example 102, 3,3-Bis-(4-hydroxy-3,5-dimethyl-phenyl)-1-(3-methyl-but-2-enyl)-1,3-dihydro-indol-2-one], the Ki is not above 500 nM.

For `C=C(C)CN1C(=O)C(c2cc(C)c(O)c(C)c2)(c2cc(C)c(O)c(C)c2)c2ccccc21` [Example 106, 3,3-Bis-(4-hydroxy-3,5-dimethyl-phenyl)-1-(2-methyl-allyl)-1,3-dihydro-indol-2-one], the Ki is not above 500 nM. The same measure for `COC(=O)c1ccc(CN2C(=O)C(c3cc(C)c(O)c(C)c3)(c3cc(C)c(O)c(C)c3)c3ccccc32)o1` [Example 108, 5-[3,3-Bis-(4-hydroxy-3,5-dimethyl-phenyl)-2-oxo-2,3-dihydro-indol-1-ylmethyl]-furan-2-carboxylic acid methyl ester]: not above 500 nM; for `CCOC(=O)CN1C(=O)C(c2cc(C)c(O)c(C)c2)(c2cc(C)c(O)c(C)c2)c2ccccc21` [Example 109, [3,3-Bis-(4-hydroxy-3,5-dimethyl-phenyl)-2-oxo-2,3-dihydro-indol-1-yl]-acetic acid ethyl ester]: not above 500 nM. For `Cc1cc(C2(c3cc(C)c(O)c(C)c3)C(=O)N(CCC3CCCCC3)c3ccccc32)cc(C)c1O` [Example 110, 1-(2-Cyclohexyl-ethyl)-3,3-bis-(4-hydroxy-3,5-dimethyl-phenyl)-1,3-dihydro-indol-2-one], the Ki was not above 500 nM.

Consider `Cc1cc(C2(c3cc(C)c(O)c(C)c3)C(=O)N(Cc3ccncc3)c3ccccc32)cc(C)c1O` [Example 111, 3,3-Bis-(4-hydroxy-3,5-dimethyl-phenyl)-1-pyridin-4-ylmethyl-1,3-dihydro-indol-2-one], for which the Ki is not above 500 nM.

Regarding `Cc1cc(C2(c3cc(C)c(O)c(C)c3)C(=O)N(Cc3c(Cl)cccc3Cl)c3ccccc32)cc(C)c1O` [Example 113, 1-(2,6-Dichloro-benzyl)-3,3-bis-(4-hydroxy-3,5-dimethyl-phenyl)-1,3-dihydro-indol-2-one], the Ki was not above 500 nM. The same measure for `Cc1cc(C2(c3cc(C)c(O)c(C)c3)C(=O)N(Cc3c(F)cccc3F)c3ccccc32)cc(C)c1O` [Example 115, 1-(2,6-Difluoro-benzyl)-3,3-bis-(4-hydroxy-3,5-dimethyl-phenyl)-1,3-dihydro-indol-2-one]: not above 500 nM.

The values above are taken from patent US7250442B2, “Dihydroindol-2-one derivatives as steroid hormone nuclear receptor modulators” (Eli Lilly and Company, priority 2003, dated 2007).
